# Experiments:
# [1] = Peptide titrations by SUVs followed by tryptophan fluorescence (solution-to-membrane partition); assay type: physicochemical; details: for Partition coefficient KX: POPC:POPG 8:2 SUVs, buffer A pH 7.4, 25 °C, tryptophan fluorescence ratio 330/370 nm; for Partition coefficient KX / ∆GKx for POPC POPG 8:2: S.D. within ± 10%; for Kd: converted from KX: [W]/KX = Kd, [W] = 55.5 M, read-out: Kd for POPC:POPG 8:2; for ∆GKx for POPC POPG 8:2: ∆GKx = -RT Ln Kx
# Description: Lipid vesicles preparation
# Small unilamellar vesicles (SUVs) and large unilamellar vesicles (LUVs) were prepared with POPC and POPG at a molar ratio of 8:2, at a lipid concentration of 10 mM in buffer A, as previously described 1. Briefly, SUVs and LUVs were prepared by reverse phase evaporation and filtered through polycarbonate filters of 1 μm and 0.2 μm of pore size diameter to obtain L UV. SUVs were further sonicated. The hydrodynamic diameters and mean net charge of the vesicles were measured by dynamic light scattering (DLS) and electrophoretic mobility, respectively, using a ZetaSizer NanoZS (Malvern Pananalytical , Orsay, France) 11.
# Peptide titrations bySUV s and CaM followed by tryptophan fluorescence
# Titrations were carried out with a FP-8200 Jasco spectrofluorimeter, equipped with a Pelt ie r - thermostated ETC-272T at 25°C. A bandwidth of 5 nm was used for both excitation and […]
# (Hellma, France) with constant stirring. Fluorescence emission was recorded between 300 and […]
# 400 nm at a scan rate of 100 nm/min, with an excitation wavelength of 280 nm. Fluorescence emission spectra were corrected for SUV or CaM baselines . Fluorescence intensity ratio at 330 nm over 370 nm was use d to measure the partition coefficient (K X) of peptides between the solution andmembrane s 1, 12 and the affinity (K d) of peptides for CaM 13.
# Determination of partition coefficient KX and dissociation constant Kd from […]
# The partition coefficient KX is defined as the ratio of protein in the lipid (PL) and in buffer […]
# (PW) pha se s 12, 14, expressed by: KKXX = [LL ]? , giving[PPWW ] [PPWW ]= [WW], where [W] the […]
# concentration of water (55.5 M) and [L] the lipid concentration.
# The fraction of peptide partitioned into the membrane, fPL, is equal to:
# ffPPLL = [PPLL ][PPTT ]= [PPLL ][PPLL ]+[PPWW ]= 11+([PPWW ])= 11+( [WW]), where PT is the total concentration of peptides [PP TT ]= [PP LL ]+ [PP WW ]. […]
# The equations a re fitted to the experimental data using the KaleidaGraph software, providing the KX and K d value s. The partition coefficient is related to the apparent dissociation constant:
# KKXX × KKdd = [WW ] and to the free energy of partition ΔG Kx = -RTln(K X), where ΔG is the free energy in kcal/mol, R the gas constant (R = 1.98 x 10-3 kcal/mol/K) and T the temperature i n Kelvin. The free energy of peptide CaM interaction, ∆G Kd, is given by ΔG Kd = RTln(K d).
# Sedimentation velocity-Analytical ultracentrifugation (SV -AUC) […]
# ratio 1:1 (at 70 µM each). Samples were incubated 2h at 20°C in the ultracentrifuge and, then span at 42,000 rpm in an An-50 Ti rotor. […]
# [2] = Membrane permeabilization of ANTS/DPX-loaded LUVs; details: for CP1/2, peptide concentration required to induce recovery of 50% of ANTS fluorescence intensity upon LUVs permeabilization: ANTS:DPX LUVs POPC:POPG 8:2, 0.45 mM lipid, buffer A pH 7.4, 25 °C, ex 390/em 515 nm, S.D. ± 5%; for Vesicle permeabilization (in words): ANTS:DPX LUVs POPC:POPG 8:2
# [3] = target: T1, calmodulin (CaM) (Homo sapiens, UniProt P0DP23); test: Peptide titrations by CaM followed by tryptophan fluorescence, and ITC (Kd for CaM); assay type: binding; details: for Kd: holo-CaM, from fluorescent titrations and ITC, 25 °C, average of at least three independent replicates; for Kd / ∆GKd for CaM: S.D. within ± 10%; for ∆GKd for CaM: ΔGKd = RTln(Kd); for Decrease of affinity for CaM relative to P454: from Table S3
# T1 construct: made in house; host or cells: E. coli
# [4] = Synchrotron radiation circular dichroism, alpha-helical content (Bestsel); assay type: physicochemical; details: 25 °C, far-UV SRCD; for alpha-helical content, TFE 20%: 20% TFE; for alpha-helical content, POPC:POPG 8:2: SUVs POPC:POPG 8:2 at 2 mM lipid; for alpha-helical content, Solution: buffer A
# Description: Synchrotron Radiation Circular Dichroism
# Synchrotron radiation circular dichroism (SRCD) was performed on the DISCO beamline of the synchrotron SOLEIL (Saint -Aubin, France) . Spectra were recorded at 25°C with an integration time of 1.2 s and a bandwidth of 1 nm with a resolution of 1 nm. A far-UV spectrum represents the average of four individual scans. QS cells (Hellma, France) with a pathlength of 20, 50, 100 or 200 μm (depending on final protein concentrations) were used to record spectra in the fa r -UV range (from 190 to 250 nm). CD spectra of peptides and proteins were measured in buffers A and B, 20% of trifluoroethanol (TFE), in the presence of SUVs (POPC :PO PG 8: 2) or Ca M. Secondary structure content was estimated using Bestsel software […]
# Table S8: Estimation of the α -helical content of P454-derived peptides. The secondary structure content is estimated using the on-line Bestsel software 17 available at http://bestsel.elte.hu/index.php. […]
# peptide in buffer A, in 20% TFE and in the presence of POPC POPG (molar ratio 8:2) at 2 mM lipid concentration. The far -UV CD spectra of several P454-derived peptides are shown […]
Molecule,Partition coefficient KX [1],Kd [1] [µM],∆GKx for POPC POPG 8:2 [1] [kcal/mol],"CP1/2, peptide concentration required to induce recovery of 50% of ANTS fluorescence intensity upon LUVs permeabilization [2] [µM]",Kd [3] [µM],∆GKd for CaM [3] [kcal/mol],"alpha-helical content, TFE 20% [4] [%]","alpha-helical content, POPC:POPG 8:2 [4] [%]","alpha-helical content, Solution [4] [%]",Vesicle permeabilization (in words) [2],Decrease of affinity for CaM relative to P454 [3]
Ac-ASAHWGQRAAQGAQAVAAAQRLVHAIALMTQ-NH2 [P454 L463A],630 ×10^3,90,-7.9,0.41,0.2,-9.1,48 ± 3,19 ± 2,14 ± 2,,
Ac-ASAHWGQRALQGAQAVAAAQQLVHAIALMTQ-NH2 [P454 R2Q],150 ×10^3,370,-7,0.11,0.18,-9.2,,,,,
Ac-ASAHAGQRALQGAQAVAAAQRLVHAAALMTQ-NH2 [P454 W458A-I479A],4.2 ×10^3,13200,-4.9,> 80,2.04,-7.7,55 ± 1,7 ± 3,10 ± 3,do not permeabilize vesicles,
Ac-ASAHWGQRAAQGAQAVAAAQRAVSAAALMTQ-NH2 [P454 L463A-L475A-H477S-I479A],35 ×10^3,1580,-6.2,> 50,,-6.8,38 ± 2,5 ± 2,4 ± 1,do not permeabilize vesicles,
Ac-ASAHWGQRALQGAQAVAAAQRAVSAAALMTQ-NH2 [P454 L475A-H477S-I479A],18 ×10^3,3160,-5.8,9.03,1.54,-7.9,51 ± 4,6 ± 2,6 ± 2,,≈ 20 fold
Ac-ASAHWGQQALQGAQAVAAAQRLVHAIALMTQ-NH2 [P454 R1Q],190 ×10^3,290,-7.2,0.22,0.1,-9.5,,,,,
CC[C@H](C)[C@H](NC(=O)[C@H](C)NC(=O)[C@H](Cc1c[nH]cn1)NC(=O)[C@@H](NC(=O)[C@H](CC(C)C)NC(=O)[C@H](CCCNC(=N)N)NC(=O)[C@H](CCC(N)=O)NC(=O)[C@H](C)NC(=O)[C@H](C)NC(=O)[C@H](C)NC(=O)[C@@H](NC(=O)[C@H](C)NC(=O)[C@H](CCC(N)=O)NC(=O)[C@H](C)NC(=O)CNC(=O)[C@H](CCC(N)=O)NC(=O)[C@H](CC(C)C)NC(=O)[C@H](C)NC(=O)[C@H](CCCNC(=N)N)NC(=O)[C@H](CCC(N)=O)NC(=O)CNC(=O)[C@@H](N)Cc1c[nH]c2ccccc12)C(C)C)C(C)C)C(=O)N[C@@H](C)C(=O)N[C@@H](CC(C)C)C(N)=O [P458],190 ×10^3,290,-7.2,1.26,,,50,23 ± 2,10 ± 4,,
Ac-ASAHWGQRALQGAQAVAAAQRLVSAAALMTQ-NH2 [P454 H477S-I479A],105 ×10^3,530,-6.8,1.88,1.19,-8.0,51 ± 4,27 ± 3,2 ± 2,,≈ 20 fold
Ac-ASAHWGQRALQGAQAVAAAQRLVHALALMTQ-NH2 [P454 I479L],700 ×10^3,80,-7.9,0.04,0.06,-9.8,51 ± 1,51 ± 5,13 ± 1,,
Ac-ASAHWGQRALQGAQAVAAAQRLVSAIALMTQ-NH2 [P454 H477S],340 ×10^3,160,-7.5,0.25,0.19,-9.1,40 ± 1,20 ± 2,4 ± 2,,
Ac-ASAHWGQAALQGAQAVAAAQALVHAIALMTQ-NH2 [P454 R12A],280 ×10^3,200,-7.4,0.14,,,,,,,

# Reference: article PMC8097335, “A High‐Affinity Calmodulin‐Binding Site in the CyaA Toxin Translocation Domain is Essential for Invasion of Eukaryotic Cells” (Advanced Science, 2021)
